Measured values as given in patent publication EP4273147A1, “SUBSTITUTED SPIROLACTAMS, SALTS THEREOF AND THEIR USE AS HERBICIDALLY ACTIVE SUBSTANCES” (Bayer Aktiengesellschaft, priority 2022, dated 2023).
Values belong to the compound of their own block, whether it stands above or below them.

Legend:
POAAN [1] = experiment: Herbicidal pre-emergence action (Table A7); assay type: in vivo, Poa annua; details: visual grading after ca. 3 weeks
Summary of the method: (§1)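 One monocotyledonous and one dicotyledonous weed species shared each pot. Seeds were sown in sandy loam and covered over with soil.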

AMARE = experiment: Herbicidal post-emergence action (Table B11); assay type: in vivo, Amaranthus retroflexus; details: application rate 1280 g/ha
Method: (§2) Seeds of mono- and dicotyledonous weed plants were placed in plastic pots in sandy loam soil (doubly sown with in each case one species of mono- or dicotyledonous weed plants per pot), covered with soil and cultivated in a greenhouse under controlled growth conditions. 2 to 3 weeks after sowing, the test plants were treated at the one-leaf stage. […] After the test plants had been kept in the greenhouse under optimum growth conditions for about 3 weeks, the activity of the preparations was rated visually in comparison to untreated controls. For example, 100% activity = the plants have died, 0% activity = like control plants.

SETVI [2] = experiment: Herbicidal pre-emergence action (Table A5); assay type: in vivo, Setaria viridis; details: visual grading after ca. 3 weeks
Summary of the method: as §1

STEME = experiment: Herbicidal pre-emergence action (Table A6); assay type: in vivo, Stellaria media; details: visual grading after ca. 3 weeks
Summary of the method: as §1

POAAN [3] = experiment: Herbicidal post-emergence action (Table B7); assay type: in vivo, Poa annua
Summary of the method: (§3)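 Sow weeds in sandy loam pots, one species each; grow in greenhouse 2–3 weeks to one-leaf stage; treat; hold ~3 weeks under optimum conditions; rate damage visually vs untreated (0–100%).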

ORYZA [4] = experiment: Pre-emergence effects on crop plants (Table D3); details: crop plant, visual grading after ca. 3 weeks
LOLRI [5] = experiment: Herbicidal pre-emergence action, section C (Table C7); assay type: in vivo, Lolium rigidum; details: application rate 320 g/ha; visual grading after ca. 3 weeks
From the text: Seeds of mono- and dicotyledonous weed plants and crop plants were sown, in plastic or organic planting pots, in sandy loam and covered with soil. The compounds according to the invention, formulated in the form of wettable powders (WP) or as emulsifiable concentrates (EC), were applied to the surface of the covering soil as aqueous suspension or emulsion, with the addition of 0.5% of an additive, at an application rate of 600 1 of water/ha (converted). Following treatment, the pots were placed in a greenhouse and kept under optimum growth conditions for the test plants.

TRZAS [6] = experiment: Pre-emergence effects on crop plants (Table D2); assay type: in vivo, Triticum aestivum; details: crop plant, visual grading after ca. 3 weeks
From the text: (§5) Seeds of mono- and dicotyledonous weed plants and crop plants were sown, in plastic or organic planting pots, in sandy loam and covered with soil. The compounds according to the invention, formulated in the form of wettable powders (WP) or as emulsifiable concentrates (EC), were applied to the surface of the covering soil as aqueous suspension or emulsion, with the addition of 0.5% of an additive, at an application rate of 600 1 of water/ha (converted).
(§6) Following treatment, the pots were placed in a greenhouse and kept under optimum growth conditions for the test plants.

VERPE = experiment: Herbicidal pre-emergence action, section C (Table C11); assay type: in vivo, Veronica persica; details: application rate 80 g/ha; visual grading after ca. 3 weeks
GLXMA [7] = experiment: Pre-emergence effects on crop plants (Table D4); assay type: in vivo, Glycine max; details: crop plant; application rate 320 g/ha; visual grading after ca. 3 weeks
ECHCG [8] = experiment: Herbicidal pre-emergence action (Table A2); assay type: in vivo, Echinochloa crus-galli; details: visual grading after ca. 3 weeks
Summary of the method: as §1

DIGSA [9] = experiment: Herbicidal pre-emergence action, section C (Table C5); assay type: in vivo, Digitaria sanguinalis; details: visual grading after ca. 3 weeks
ECHCG [10] = experiment: Herbicidal pre-emergence action, section C (Table C6); assay type: in vivo, Echinochloa crus-galli; details: application rate 320 g/ha; visual grading after ca. 3 weeks
ZEAMX [11] = experiment: Pre-emergence effects on crop plants (Table D1); assay type: in vivo, Zea mays; details: crop plant; application rate 80 g/ha; visual grading after ca. 3 weeks
From the text: as §5, §6

LOLRI [12] = experiment: Herbicidal pre-emergence action (Table A3); assay type: in vivo, Lolium rigidum; details: visual grading after ca. 3 weeks
Summary of the method: as §1

GLXMA [13] = experiment: Post-emergence effects on crop plants (Table F4); assay type: in vivo, Glycine max; details: application rate 320 g/ha, crop plant GLXMA
From the text: (§4) 2 to 3 weeks after sowing, the test plants were sprayed in the single-leaf stage.

VIOTR = experiment: Herbicidal pre-emergence action, section C (Table C12); assay type: in vivo, Viola tricolor; details: application rate 320 g/ha; visual grading after ca. 3 weeks
ORYZA [14] = experiment: Post-emergence effects on crop plants (Table F3); assay type: in vivo, Oryza sativa; details: application rate 320 g/ha, crop plant ORYZA
From the text: as §4

TRZAS [15] = experiment: Post-emergence effects on crop plants (Table F2); assay type: in vivo, Triticum aestivum; details: application rate 320 g/ha, crop plant TRZAS
From the text: as §4

ECHCG [16] = experiment: Herbicidal post-emergence action, section E (Table E5); assay type: in vivo, Echinochloa crus-galli; details: application rate 320 g/ha; assessed visually after ca. 3 weeks
From the text: as §4

ALOMY = experiment: Herbicidal pre-emergence action, section C (Table C2); assay type: in vivo, Alopecurus myosuroides; details: application rate 320 g/ha; visual grading after ca. 3 weeks
BRSNW [17] = experiment: Pre-emergence effects on crop plants (Table D5); assay type: in vivo, Brassica napus; details: crop plant; application rate 320 g/ha; visual grading after ca. 3 weeks
SETVI [18] = experiment: Herbicidal pre-emergence action, section C (Table C10); assay type: in vivo, Setaria viridis; details: application rate 320 g/ha; visual grading after ca. 3 weeks
ZEAMX [19] = experiment: Post-emergence effects on crop plants (Table F1); assay type: in vivo, Zea mays; details: application rate 320 g/ha, crop plant ZEAMX
From the text: as §4

BRSNW [20] = experiment: Post-emergence effects on crop plants (Table F5); assay type: in vivo, Brassica napus; details: application rate 320 g/ha, crop plant BRSNW
From the text: as §4

ECHCG [21] = experiment: Herbicidal post-emergence action (Table B3); assay type: in vivo, Echinochloa crus-galli; details: application rate 1280 g/ha; rated visually after about 3 weeks
Summary of the method: as §3

MATIN [22] = experiment: Herbicidal post-emergence action (Table B6); assay type: in vivo, Matricaria inodora; details: rated visually after about 3 weeks
Method: as §2

DIGSA [23] = experiment: Herbicidal pre-emergence action (Table A12); assay type: in vivo, Digitaria sanguinalis; details: visual grading after ca. 3 weeks
Summary of the method: as §1

ABUTH = experiment: Herbicidal pre-emergence action (Table A1); assay type: in vivo, Abutilon theophrasti; details: application rate 1280 g/ha; visual grading after ca. 3 weeks vs untreated controls (100% = plants have died off, 0% = as control plants)
From the text: Seeds of mono- and dicotyledonous weed plants were sown in plastic pots (double sowings with one species of mono- and one species of dicotyledonous weed plants per pot), in sandy loam, and covered with soil.

MATIN [24] = experiment: Herbicidal pre-emergence action (Table A4); assay type: in vivo, Matricaria inodora; details: application rate 1280 g/ha; visual grading after ca. 3 weeks
Summary of the method: as §1

KCHSC = experiment: Herbicidal pre-emergence action (Table A10); assay type: in vivo, Kochia scoparia; details: application rate 1280 g/ha; visual grading after ca. 3 weeks
Summary of the method: as §1

SMILES: COc1c(F)ccc(CN2CCCC3(CCCN(Cc4ccc(F)c(OC)c4F)C3=O)C2=O)c1F (racemic) [I-019]
- pre-emergence activity against POAAN (POAAN [1]; application rate 320 g/ha): 100%
- post-emergence activity against AMARE (AMARE): 100%
- pre-emergence activity against SETVI (SETVI [2]; application rate 1280 g/ha): 100%
- pre-emergence activity against STEME (STEME; application rate 320 g/ha): 100%
- post-emergence activity against POAAN (POAAN [3]; application rate 1280 g/ha): 100%

- pre-emergence activity against ORYZA (ORYZA [4]; application rate 80 g/ha): 10%
- pre-emergence activity against TRZAS (TRZAS [6]; application rate 80 g/ha): 0%
- pre-emergence activity against GLXMA (GLXMA [7]): 10%
- pre-emergence activity against ZEAMX (ZEAMX [11]): 0%
- pre-emergence activity against BRSNW (BRSNW [17]): 20%
SMILES: O=C1N(Cc2ccc(F)cc2F)CCCC12CCCN(Cc1ccc(F)cc1F)C2=O (racemic) [I-021]
- pre-emergence activity against LOLRI (LOLRI [5]): 100%
- pre-emergence activity against VERPE (VERPE): 100%
- pre-emergence activity against ECHCG (ECHCG [8]; application rate 1280 g/ha): 100%
- pre-emergence activity against DIGSA (DIGSA [9]; application rate 80 g/ha): 90%
- pre-emergence activity against ECHCG (ECHCG [10]): 100%
- pre-emergence activity against POAAN (POAAN [1]; application rate 320 g/ha): 90%
- pre-emergence activity against LOLRI (LOLRI [12]; application rate 320 g/ha): 100%
- post-emergence activity against GLXMA (GLXMA [13]): 10%
- pre-emergence activity against VIOTR (VIOTR): 80%
- post-emergence activity against ORYZA (ORYZA [14]): 0%
- pre-emergence activity against SETVI (SETVI [2]; application rate 320 g/ha): 100%
- post-emergence activity against TRZAS (TRZAS [15]): 0%
- post-emergence activity against ECHCG (ECHCG [16]): 80%
- pre-emergence activity against ALOMY (ALOMY): 100%
- pre-emergence activity against STEME (STEME; application rate 320 g/ha): 90%
- pre-emergence activity against SETVI (SETVI [18]): 100%
- post-emergence activity against ZEAMX (ZEAMX [19]): 10%
- post-emergence activity against BRSNW (BRSNW [20]): 0%

SMILES: Cc1ccc(F)c(CN2CCCC3(CCCN(Cc4c(F)ccc(C)c4F)C3=O)C2=O)c1F (racemic) [I-029]
- post-emergence activity against ECHCG (ECHCG [21]): 100%
- pre-emergence activity against ECHCG (ECHCG [8]; application rate 1280 g/ha): 100%
- pre-emergence activity against POAAN (POAAN [1]; application rate 320 g/ha): 90%
- pre-emergence activity against LOLRI (LOLRI [12]; application rate 1280 g/ha): 100%
- post-emergence activity against MATIN (MATIN [22]; application rate 1280 g/ha): 100%
- pre-emergence activity against SETVI (SETVI [2]; application rate 1280 g/ha): 100%
- pre-emergence activity against STEME (STEME; application rate 1280 g/ha): 90%
- post-emergence activity against POAAN (POAAN [3]; application rate 1280 g/ha): 90%

SMILES: O=C1N(Cc2ccccc2Cl)CCCC12CCCN(Cc1ccccc1Cl)C2=O (racemic) [I-030]
- pre-emergence activity against ECHCG (ECHCG [8]; application rate 320 g/ha): 90%
- pre-emergence activity against POAAN (POAAN [1]; application rate 1280 g/ha): 90%
- post-emergence activity against MATIN (MATIN [22]; application rate 320 g/ha): 90%
- pre-emergence activity against SETVI (SETVI [2]; application rate 1280 g/ha): 100%
- post-emergence activity against POAAN (POAAN [3]; application rate 320 g/ha): 90%

- pre-emergence activity against ORYZA (ORYZA [4]; application rate 320 g/ha): 0%
- pre-emergence activity against TRZAS (TRZAS [6]; application rate 320 g/ha): 0%
- pre-emergence activity against ZEAMX (ZEAMX [11]): 0%
- pre-emergence activity against BRSNW (BRSNW [17]): 10%
SMILES: Cc1cccc(CN2CCCC3(CCCN(Cc4cccc(C)c4F)C3=O)C2=O)c1F (racemic) [I-053]
- pre-emergence activity against ECHCG (ECHCG [8]; application rate 1280 g/ha): 100%
- pre-emergence activity against DIGSA (DIGSA [9]; application rate 320 g/ha): 100%
- pre-emergence activity against POAAN (POAAN [1]; application rate 320 g/ha): 100%
- pre-emergence activity against LOLRI (LOLRI [12]; application rate 1280 g/ha): 90%
- post-emergence activity against GLXMA (GLXMA [13]): 0%
- pre-emergence activity against DIGSA (DIGSA [23]; application rate 320 g/ha): 100%
- post-emergence activity against MATIN (MATIN [22]; application rate 320 g/ha): 90%
- pre-emergence activity against VIOTR (VIOTR): 90%
- post-emergence activity against ORYZA (ORYZA [14]): 0%
- pre-emergence activity against SETVI (SETVI [2]; application rate 1280 g/ha): 100%
- post-emergence activity against TRZAS (TRZAS [15]): 10%
- post-emergence activity against POAAN (POAAN [3]; application rate 1280 g/ha): 90%
- pre-emergence activity against SETVI (SETVI [18]): 100%
- post-emergence activity against ZEAMX (ZEAMX [19]): 0%
- post-emergence activity against BRSNW (BRSNW [20]): 20%

SMILES: O=C1N(Cc2ccccc2Cl)CCCC12CCN(Cc1c(F)cccc1F)C2=O (racemic) [I-076]
- post-emergence activity against ECHCG (ECHCG [21]): 90%
- pre-emergence activity against ECHCG (ECHCG [8]; application rate 1280 g/ha): 100%
- pre-emergence activity against POAAN (POAAN [1]; application rate 320 g/ha): 100%
- pre-emergence activity against ABUTH (ABUTH): 90%
- pre-emergence activity against LOLRI (LOLRI [12]; application rate 320 g/ha): 100%
- pre-emergence activity against DIGSA (DIGSA [23]; application rate 320 g/ha): 90%
- pre-emergence activity against SETVI (SETVI [2]; application rate 1280 g/ha): 100%
- pre-emergence activity against STEME (STEME; application rate 320 g/ha): 90%
- pre-emergence activity against MATIN (MATIN [24]): 90%

SMILES: O=C1N(Cc2ccccc2)CCC12CCCN(Cc1ccccc1F)C2=O (racemic) [I-093]
- pre-emergence activity against ECHCG (ECHCG [8]; application rate 1280 g/ha): 100%
- pre-emergence activity against POAAN (POAAN [1]; application rate 320 g/ha): 100%
- pre-emergence activity against ABUTH (ABUTH): 90%
- pre-emergence activity against LOLRI (LOLRI [12]; application rate 1280 g/ha): 100%
- pre-emergence activity against DIGSA (DIGSA [23]; application rate 1280 g/ha): 100%
- pre-emergence activity against SETVI (SETVI [2]; application rate 320 g/ha): 100%
- pre-emergence activity against KCHSC (KCHSC): 90%
- pre-emergence activity against STEME (STEME; application rate 1280 g/ha): 90%
- post-emergence activity against POAAN (POAAN [3]; application rate 320 g/ha): 90%
- pre-emergence activity against MATIN (MATIN [24]): 90%
